Assay results published in a melting point compilation (Tetko et al.; mined from patent text by program, amines drawn as free bases though some values may be those of a salt).

`CCc1nc2c(N)nc3ccccc3c2n1CCCSC` gave a melting point of 210 to 212 °C.
Compound `C#CCn1c(C)c(C(=O)OCC)sc1=O` has a melting point of 65 °C.
`Cc1ccc(C(=O)Nc2nc(=O)n(C)cc2F)cc1` gave a melting point of 229 to 230 °C.
In the case of `CCCc1c(OCCCCCC(=O)c2cc(O)c(O)cc2F)ccc(C(=O)O)c1O`, the melting point was 193 to 195 °C.
Work on `Cc1nccn1-c1cc2[nH]c(=O)c(=O)n(O)c2cc1C(F)(F)F` yielded a melting point of over 300 °C.
`O=[N+]([O-])c1cccc2c3c(cc([N+](=O)[O-])c12)NCC3CCl` (configuration not stated) gave a melting point of 206 to 207 °C.
In the case of `CCOC(=O)c1[nH]nc(C)c1[N+](=O)[O-]`, the melting point was 81 to 86 °C.
`S=c1c2ccc(Cl)cc2nc2n1CCCCC2` gave a melting point of 99 to 101 °C.
`CC(=O)Oc1cc(C(C)C)ccc1C1(OC(C)=O)C(=O)c2ccccc2C1=O` gave a melting point of 136 to 137 °C.
In the case of `CCCCCCCCCCCc1coc(NC(=O)Nc2c(C(C)C)cccc2C(C)C)n1`, the melting point was 104 to 108 °C.
Work on `O=C(c1ccccc1O)N1CCc2cc(S(=O)(=O)N3CC(c4ccccc4)NC3=O)ccc21` (configuration not stated) yielded a melting point of 221 °C.
In the case of `CC(C)n1nc(-c2cc(C(=O)NCCN3CCOCC3)cnc2-c2ccccc2)ccc1=O`, the melting point was 162 to 163 °C.
Compound `CCOC(=O)CC(=O)CCNC(=O)OCc1ccccc1` has a melting point of 25 to 27 °C.
Work on `CCCCCCCCC1CC(Cn2cncn2)(c2ccc(OC)cc2)N(C)O1` (configuration not stated) yielded a melting point of 89 to 91 °C.
`CSc1cc2nnc(C)n2c(C)n1` gave a melting point of 201 to 203 °C.
In the case of `CS(=O)(=O)c1nccc(Oc2ccc(NC(=O)c3cc(F)cc(N4CCOCC4)c3)c3ccccc23)n1`, the melting point was 173 to 175 °C.
Compound `COc1cc(-c2nc3sccn3c2-c2ccnc(NC3CCN(S(=O)(=O)C4CC4)CC3)n2)ccc1F` has a melting point of 146 to 148 °C.
With `O=C1NC(=O)C(Cc2ccc(N3CCC(NC[C@H](O)c4cccc(Cl)c4)CC3)cc2)S1` (some centres not stated) the melting point was 195 to 198 °C.
In the case of `Cc1cnc(N)c(Br)n1`, the melting point was 51 to 52 °C.
Work on `Nc1ccc2ncnc(Nc3ccc(OCc4ccccc4)cc3)c2c1` yielded a melting point of 173 to 175 °C.
`Cn1cc(C#N)cc1C=O` showed a melting point of 125 to 126 °C.
Compound `CC1(C)CS(=O)(=O)CC(C)(C)N1CC#N` has a melting point of 188 °C.
With `O=C(O)COc1c(-c2cccc(Cl)c2)cc(C(=O)NCCCC2CCCC2)cc1-c1cccc(C(F)(F)F)c1` the melting point was 173 to 175 °C.
For `COc1cc(NC(=O)Nc2cnc3c(C)cc(C)cc3c2-c2ccccc2Cl)cc(OC)c1OC`, the melting point was 204 to 206 °C.
Work on `CC(=O)OCC1CC(Nc2cc(Cl)c(Cl)cc2N)C(OC(C)=O)C1OC(C)=O` (configuration not stated) yielded a melting point of 124 to 125 °C.
`COc1cc(CCC(=O)c2c(O)cc(O)c(CCC(C)C)c2O)cc(OC)c1O` showed a melting point of 166 to 167 °C.
In the case of `Cc1nc(C(F)(F)F)ccc1NC(=NC#N)NC(NC(=O)c1ccc(Cl)cc1)C(C)(Cl)Cl` (configuration not stated), the melting point was 115 to 116 °C.
In the case of `CN1CC(C)(C)Oc2c(C(=O)NC3CN4CCC3CC4)cccc21` (configuration not stated), the melting point was 114 to 116 °C.
Compound `CCOC(=O)c1ccc(OCCc2c(CCNS(=O)(=O)Cc3ccc(Cl)c(Cl)c3)n(C(c3ccccc3)c3ccccc3)c3ccc(Cl)cc23)cc1F` has a melting point of 83 to 85 °C.
In the case of `CCOC(=O)/C=C/C=C/C(=O)c1cc2c(cc1C)C(C)(C)CCC2(C)C`, the melting point was 101 to 102 °C.
Work on `CC(C)(C)NCC(O)COc1cccc2[nH]c(=S)[nH]c12` (configuration not stated) yielded a melting point of 214 to 216 °C.
In the case of `N#Cc1ccccc1OCCCN1CCC(C(c2ccc(F)cc2)c2ccc(F)cc2)CC1`, the melting point was 88.5 to 90 °C.
Compound `CNC(=NCCSCc1[nH]cnc1C)P(=O)(O)OC` has a melting point of 170 to 171 °C.
`CC1(C)CC2(CC(C)(C)N1)NC(=O)N(CC(O)COC(=O)CCCCC(=O)OCC(O)CN1C(=O)NC3(CC(C)(C)NC(C)(C)C3)C1=O)C2=O` (configuration not stated) gave a melting point of 132 to 134 °C.
`CSCC(=O)[C@H](Cc1cccs1)NC(=O)[C@H](CC(C)C)NC(=O)OCc1ccccc1` showed a melting point of 93 to 97 °C.
Compound `COc1ccc2c(O)c(C(=O)NCCO)nc(Cl)c2c1` has a melting point of 165 to 167 °C.
Work on `CC1Cc2cc(C3C(=O)Oc4c3cc(C(C)(C)C)cc4C(C)(C)C)ccc2O1` (configuration not stated) yielded a melting point of 136 to 152 °C.
In the case of `CCOC(=O)Cc1cnc2c(NC(=O)c3c(Cl)cccc3Cl)cccc2c1`, the melting point was 151 °C.
For `Clc1nc(-c2ccccc2)nc(-c2ccccc2)n1`, the melting point was 136 to 138 °C.
With `CCC1(F)CN(C2CCCC2)c2nc(Nc3ccc(C(=O)NC4CCN(C)CC4)cc3OC)ncc2N(C)C1=O` (configuration not stated) the melting point was 149 to 153 °C.
In the case of `N#CSc1nc(I)ncc1Br`, the melting point was 199 to 202 °C.
Compound `COc1ccc([C@@H]2[C@@H](CCCBr)C(=O)N2c2ccc(OC)cc2)cc1` has a melting point of 70 to 73 °C.
Compound `CO/C=C(/C(=O)OC)c1ccccc1/C=C(\Cl)OC(=O)C1=C(c2ccccc2)S(=O)(=O)C(c2ccccc2)C1=O` (configuration not stated) has a melting point of 68 to 72 °C.
For `Cc1ccc(-c2ccccc2)cc1Cn1c(C2CC2)nn(C)c1=O`, the melting point was 102 °C.
`CCCOCCOc1ccccc1COc1ccc2c(c1)C=C(C(=O)Nc1ccc(CN(C)C3CCOCC3)cc1)CCS2(=O)=O` showed a melting point of 136 to 138 °C.
Work on `COC(=O)C1CCCn2c(=O)n(CC(=O)OCc3ccccc3)c(=O)n21` (configuration not stated) yielded a melting point of 103 to 106 °C.
For `Cc1[nH]c(=O)c(C#N)cc1-c1ccc(S(C)=O)cc1` (configuration not stated), the melting point was 290 to 291 °C.
For `CCCc1c(OCCCOc2cccnc2CCC(=O)OC)ccc(C(C)=O)c1O`, the melting point was 85 to 87 °C.
For `O=C(O)CCc1cn(Cc2ccc(OCc3cncc(-c4ccccc4)c3)cc2)nc1-c1ccccc1`, the melting point was 161 to 162 °C.
With `CCCCN(CC)CC(=O)N1c2ccccc2N(C)C(=O)c2cnc(-c3ccccc3)nc21` the melting point was 107 to 109 °C.
Work on `CC(C)C1(C)N=C2c3ncc(C4OCCO4)cc3C(=O)N2C1=O` (configuration not stated) yielded a melting point of 102 to 104 °C.
With `CCOCC(=O)Nc1ccc(Br)c(-n2nc(CC)n(Cc3ccc(-c4ccccc4S(=O)(=O)NC(=O)OC(C)(C)C)cc3F)c2=O)c1` the melting point was 132 to 134 °C.
`CN1C(=O)C(NC(=O)Nc2ccccc2)N=C(c2ccccc2)c2ccccc21` (configuration not stated) showed a melting point of 260 to 261 °C.
Compound `N=C(Nc1ccc(F)c(NC(=O)/C=C/c2ccccc2Cl)c1)c1ccccc1` has a melting point of 189 to 191 °C.
Work on `O=c1cc(-c2ccncn2)nc2n1CCCN2` yielded a melting point of 268 to 272 °C.
`CCC(C)c1ccc2c(c1)C(=O)N(c1ccc3c(ccn3C)c1)C2` (configuration not stated) showed a melting point of 146 to 147 °C.
`Fc1ccccc1C1=NCc2cncnc2-c2ccc(Cl)cc21` gave a melting point of 122 to 124 °C.
For `CCCCCCCCc1nc2c(N)nc3ccccc3c2n1CCOCc1ccccc1`, the melting point was 110 to 111 °C.
`CC(=O)c1ccc(-c2ccc(F)cc2Br)cc1` showed a melting point of 70 to 72 °C.
Compound `CCc1cc(Nc2ccc(NC(=O)c3ccccc3S(=O)(=O)O)cc2)n2nccc2n1` has a melting point of over 320 °C.
`Cc1nc2cc(NS(=O)(=O)c3cc(Cl)ccc3Cl)ccc2o1` showed a melting point of 194 °C.
Work on `O=C(c1ccc(Cl)cc1)N1CCc2cc(S(=O)(=O)n3cc(-c4ccccc4)[nH]c3=O)ccc21` yielded a melting point of 220 to 221 °C.
`CC(=CCc1c(C)c(N=Nc2ccc([N+](=O)[O-])cc2[N+](=O)[O-])c2ccccc2c1O)CCCC(C)CCCC(C)CCCC(C)C` (configuration not stated) gave a melting point of 110 °C.
With `CC(Oc1ncn(-c2cccc(Br)c2)n1)C(=O)N1CCCC1` (configuration not stated) the melting point was 111 to 113 °C.
With `CC(O)(C#Cc1ccc(S(=O)(=O)N2CCCC2)cc1)C(F)(F)F` (configuration not stated) the melting point was 140 to 143 °C.
Work on `CC(C)NC(=N)NC1=NC(=O)C(=O)N1c1ccc(Cl)c(Cl)c1` yielded a melting point of 244 °C.
Compound `CNC(=NS(C)(=O)=O)NCc1cccc(-c2csc(N=C(N)N)n2)n1` has a melting point of 254 to 255 °C.
